Test results taken from patent publication US9211310B2, “Use of a Chinese medicine composition in preparing medicaments for treating secondary prevention of myocardial infarction” (TASLY PHARMACEUTICAL GROUP CO., LTD, priority 2010, dated 2015).

System: patients after acute myocardial infarction
Experiment: TCM symptom score, total and single (chest pain, chest tightness, short breath, fatigue, palpitation, spontaneous perspiration, pale complexion), same clinical trial
Format: in vivo, human
Parameters: total score of TCM symptom, Mean / total score of TCM symptom, Min / total score of TCM symptom, Max / total score of TCM symptom, Md / change of total score of TCM symptom, Mean / change of total score of TCM symptom, Max / change of total score of TCM symptom, Md: scale not given here
Description: 3508 patients who were in accordance with the diagnostic standards of AMI for 28 days to 2 years and differentiated as Qi deficiency and blood stagnation syndrome by TCM were studied. 0.5 g Chinese medicine composition prepared by the method of EXAMPLE 1 (Coded as QSYQ) was administrated half an hour after meal, 3 times per day.
They included the overall survival time, angina pectoris score, TCM symptom score and life quality score, where angina pectoris score, TCM symptom score and life quality score were evaluated at randomization, in 1st, 3rd, 6th, 9th, 12th month after treatment and 18th month after follow-up.
The analysis method referred to the angina pectoris score.

## CC(=O)Oc1ccccc1C(=O)O [Control group, aspirine]
FAS, Follow-up-baseline
  change of pale complexion −1, number of patients: 39
  change of pale complexion −1, percent of patients: (2.75%)
  change of palpitation 0, number of patients: 690
  change of palpitation 0, percent of patients: (48.46%)
  change of palpitation 1, number of patients: 528
  change of palpitation 1, percent of patients: (37.08%)
  change of palpitation 2, number of patients: 97
  change of palpitation 2, percent of patients: (6.81%)
  change of palpitation 3, number of patients: 15
  change of palpitation 3, percent of patients: (1.05%)
  change of palpitation −1, number of patients: 90
  change of palpitation −1, percent of patients: (6.32%)
  change of palpitation −2, number of patients: 3
  change of palpitation −2, percent of patients: (0.21%)
  change of palpitation −3, number of patients: 1
  change of palpitation −3, percent of patients: (0.07%)
  change of short breath 0, % of patients: (52.21%)
  change of short breath 0, number of patients: 744
  change of short breath 2, % of patients: (36.42%)
  change of short breath 2, number of patients: 519
  change of short breath 4, % of patients: (5.47%)
  change of short breath 4, number of patients: 78
  change of short breath 6, % of patients: (0.77%)
  change of short breath 6, number of patients: 11
  change of short breath −2, % of patients: (4.98%)
  change of short breath −2, number of patients: 71
  change of short breath −4, % of patients: (0.00%)
  change of short breath −4, number of patients: 0
  change of short breath −6, % of patients: (0.14%)
  change of short breath −6, number of patients: 2
  change of spontaneous perspiration 0, number of patients: 656
  change of spontaneous perspiration 0, percent of patients: (46.07%)
  change of spontaneous perspiration 1, number of patients: 466
  change of spontaneous perspiration 1, percent of patients: (32.72%)
  change of spontaneous perspiration 2, number of patients: 141
  change of spontaneous perspiration 2, percent of patients: (9.90%)
  change of spontaneous perspiration 3, number of patients: 32
  change of spontaneous perspiration 3, percent of patients: (2.25%)
  change of spontaneous perspiration −1, percent of patients: (8.36%)
  change of spontaneous perspiration −2, number of patients: 8
  change of spontaneous perspiration −2, percent of patients: (0.56%)
  change of spontaneous perspiration −3, number of patients: 2
  change of spontaneous perspiration −3, percent of patients: (0.14%)
  change of total score of TCM symptom, Max: 27.00
  change of total score of TCM symptom, Md: −5.00
  change of total score of TCM symptom, Mean: −6.18
  change of total score of TCM symptom, Min: −29.00
Follow-up-baseline, FAS
  change of chest pain score 0, number of patients: 769
  change of chest pain score 0, percent of patients: (54.08%)
  change of chest pain score 3, number of patients: 426
  change of chest pain score 3, percent of patients: (29.96%)
  change of chest pain score 6, number of patients: 158
  change of chest pain score 6, percent of patients: (11.11%)
  change of chest pain score 9, number of patients: 9
  change of chest pain score 9, percent of patients: (0.63%)
  change of chest pain score −2, number of patients: 1
  change of chest pain score −2, percent of patients: (0.07%)
  change of chest pain score −3, number of patients: 47
  change of chest pain score −3, percent of patients: (3.31%)
  change of chest pain score −6, number of patients: 11
  change of chest pain score −6, percent of patients: (0.77%)
  change of chest pain score −9, number of patients: 1
  change of chest pain score −9, percent of patients: (0.07%)
  change of chest tightness score 0, number of patients: 728
  change of chest tightness score 0, percent of patients: (51.09%)
  change of chest tightness score 1, number of patients: 1
  change of chest tightness score 1, percent of patients: (0.07%)
  change of chest tightness score 3, number of patients: 544
  change of chest tightness score 3, percent of patients: (38.18%)
  change of chest tightness score 6, number of patients: 87
  change of chest tightness score 6, percent of patients: (6.11%)
  change of chest tightness score 9, number of patients: 5
  change of chest tightness score 9, percent of patients: (0.35%)
  change of chest tightness score −3, number of patients: 55
  change of chest tightness score −3, percent of patients: (3.86%)
  change of chest tightness score −6, number of patients: 4
  change of chest tightness score −6, percent of patients: (0.28%)
  change of chest tightness score −9, number of patients: 1
  change of chest tightness score −9, percent of patients: (0.07%)
Follow-up-baseline, PP
  change of chest pain score 0, number of patients: 750
  change of chest pain score 0, percent of patients: (54.03%)
  change of chest pain score 3, number of patients: 417
  change of chest pain score 3, percent of patients: (30.04%)
  change of chest pain score 6, number of patients: 155
  change of chest pain score 6, percent of patients: (11.17%)
  change of chest pain score 9, number of patients: 8
  change of chest pain score 9, percent of patients: (0.58%)
  change of chest pain score −2, number of patients: 1
  change of chest pain score −2, percent of patients: (0.07%)
  change of chest pain score −3, number of patients: 47
  change of chest pain score −3, percent of patients: (3.39%)
  change of chest pain score −6, number of patients: 9
  change of chest pain score −6, percent of patients: (0.65%)
  change of chest pain score −9, number of patients: 1
  change of chest pain score −9, percent of patients: (0.07%)
  change of chest tightness score 0, number of patients: 712
  change of chest tightness score 0, percent of patients: (51.19%)
  change of chest tightness score 1, number of patients: 1
  change of chest tightness score 1, percent of patients: (0.07%)
  change of chest tightness score 3, number of patients: 528
  change of chest tightness score 3, percent of patients: (37.96%)
  change of chest tightness score 6, number of patients: 86
  change of chest tightness score 6, percent of patients: (6.18%)
  change of chest tightness score 9, number of patients: 5
  change of chest tightness score 9, percent of patients: (0.36%)
  change of chest tightness score −3, number of patients: 54
  change of chest tightness score −3, percent of patients: (3.88%)
  change of chest tightness score −6, number of patients: 4
  change of chest tightness score −6, percent of patients: (0.29%)
  change of chest tightness score −9, number of patients: 1
  change of chest tightness score −9, percent of patients: (0.07%)
Follow-up, FAS
  chest pain score 0, number of patients: 754
  chest pain score 0, percent of patients: (52.84%)
  chest pain score 2, number of patients: 1
  chest pain score 2, percent of patients: (0.07%)
  chest pain score 3, number of patients: 479
  chest pain score 3, percent of patients: (33.57%)
  chest pain score 6, number of patients: 192
  chest pain score 6, percent of patients: (13.45%)
  chest pain score 9, number of patients: 1
  chest pain score 9, percent of patients: (0.07%)
  chest tightness score 0, number of patients: 754
  chest tightness score 0, percent of patients: (52.84%)
  chest tightness score 2, number of patients: 1
